# Results from publication PMC11859264, “Discovery of a Novel Multitarget Analgesic Through an In Vivo-Guided Approach” (Pharmaceuticals, 2025).
# How the values were obtained:
# Dopamine D2L = target: T1, Dopamine D2L (Homo sapiens, UniProt P14416); experiment: Radioligand binding, [3H] Spiperone, Eurofins; conditions: Dopamine D2L
# T1 construct: host or cells: CHO cells
# Serotonin 5-HT2A = Serotonin 5-HT2A (Homo sapiens, UniProt P28223); experiment: Radioligand binding, [3H] Ketanserin, Eurofins; conditions: Serotonin 5-HT2A
# Serotonin 5-HT2A, sequence (P28223 whole entry): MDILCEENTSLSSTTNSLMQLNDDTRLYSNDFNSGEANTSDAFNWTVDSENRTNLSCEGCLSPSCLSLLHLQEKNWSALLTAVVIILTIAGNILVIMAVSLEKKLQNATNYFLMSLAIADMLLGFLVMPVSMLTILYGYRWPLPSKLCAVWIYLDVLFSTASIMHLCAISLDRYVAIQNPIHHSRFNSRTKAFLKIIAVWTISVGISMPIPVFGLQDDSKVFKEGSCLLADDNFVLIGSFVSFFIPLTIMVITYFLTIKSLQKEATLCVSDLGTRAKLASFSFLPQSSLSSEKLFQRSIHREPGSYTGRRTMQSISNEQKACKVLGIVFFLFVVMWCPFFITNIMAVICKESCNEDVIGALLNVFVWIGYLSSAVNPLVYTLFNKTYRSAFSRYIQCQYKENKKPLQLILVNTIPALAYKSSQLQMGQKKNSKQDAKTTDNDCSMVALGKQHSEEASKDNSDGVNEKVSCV
# CYP3A4 = CYP3A4 (Homo sapiens, UniProt P08684); experiment: Cytochrome P450 (CYP) inhibition assay; conditions: microsomes, pH 7.4
# CYP3A4, sequence (P08684 whole entry): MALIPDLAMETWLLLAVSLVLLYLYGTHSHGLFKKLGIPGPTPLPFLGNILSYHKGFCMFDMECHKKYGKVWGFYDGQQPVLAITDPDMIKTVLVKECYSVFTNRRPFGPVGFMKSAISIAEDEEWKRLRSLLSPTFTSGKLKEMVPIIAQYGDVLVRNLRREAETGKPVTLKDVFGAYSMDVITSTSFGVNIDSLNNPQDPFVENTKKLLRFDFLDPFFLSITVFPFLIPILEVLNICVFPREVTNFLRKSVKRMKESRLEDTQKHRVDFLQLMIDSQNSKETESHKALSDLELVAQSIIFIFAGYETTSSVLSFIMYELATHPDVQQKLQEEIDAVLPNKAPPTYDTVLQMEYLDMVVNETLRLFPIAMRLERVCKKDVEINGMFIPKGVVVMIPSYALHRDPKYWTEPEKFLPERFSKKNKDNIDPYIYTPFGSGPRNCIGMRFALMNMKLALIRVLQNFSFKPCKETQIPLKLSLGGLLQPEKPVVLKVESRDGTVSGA
# CYP2C9 = CYP2C9 (Homo sapiens, UniProt P11712); experiment: Cytochrome P450 (CYP) inhibition assay; conditions: microsomes, pH 7.4
# CYP2C9, sequence (P11712 whole entry): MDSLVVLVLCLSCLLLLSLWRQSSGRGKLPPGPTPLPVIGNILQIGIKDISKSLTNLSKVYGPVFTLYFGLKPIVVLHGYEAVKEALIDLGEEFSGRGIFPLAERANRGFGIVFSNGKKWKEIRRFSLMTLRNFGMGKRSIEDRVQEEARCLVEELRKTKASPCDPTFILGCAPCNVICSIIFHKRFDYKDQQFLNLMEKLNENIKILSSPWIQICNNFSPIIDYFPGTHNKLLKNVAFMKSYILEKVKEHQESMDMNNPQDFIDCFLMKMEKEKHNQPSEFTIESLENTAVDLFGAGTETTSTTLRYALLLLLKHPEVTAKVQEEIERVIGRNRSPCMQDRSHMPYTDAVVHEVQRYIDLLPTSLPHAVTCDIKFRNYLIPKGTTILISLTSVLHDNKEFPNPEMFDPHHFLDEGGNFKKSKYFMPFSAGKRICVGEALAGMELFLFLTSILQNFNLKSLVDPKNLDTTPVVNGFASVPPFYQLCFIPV
# CYP2C19 = CYP2C19 (Homo sapiens, UniProt P33261); experiment: Cytochrome P450 (CYP) inhibition assay; conditions: microsomes, pH 7.4
# CYP2C19, sequence (P33261 whole entry): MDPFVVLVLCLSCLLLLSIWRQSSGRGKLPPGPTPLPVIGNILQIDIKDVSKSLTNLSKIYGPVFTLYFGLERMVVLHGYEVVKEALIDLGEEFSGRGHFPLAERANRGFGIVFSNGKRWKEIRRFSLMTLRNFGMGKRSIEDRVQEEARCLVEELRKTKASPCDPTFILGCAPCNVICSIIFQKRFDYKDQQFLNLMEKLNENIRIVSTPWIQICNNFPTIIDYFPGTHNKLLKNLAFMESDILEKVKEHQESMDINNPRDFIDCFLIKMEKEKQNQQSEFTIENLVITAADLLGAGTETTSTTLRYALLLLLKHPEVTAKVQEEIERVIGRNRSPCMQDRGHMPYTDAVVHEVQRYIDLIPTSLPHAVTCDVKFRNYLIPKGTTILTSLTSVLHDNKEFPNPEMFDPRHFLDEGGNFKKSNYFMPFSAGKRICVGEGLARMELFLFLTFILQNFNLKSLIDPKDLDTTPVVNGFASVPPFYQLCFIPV
# Adrenergic α2A = target: T2, Adrenergic α2A (Homo sapiens, UniProt P08913); experiment: Radioligand binding, [3H] Rauwolscine, Eurofins; conditions: Adrenergic α2A
# T2 sequence (P08913 1-465): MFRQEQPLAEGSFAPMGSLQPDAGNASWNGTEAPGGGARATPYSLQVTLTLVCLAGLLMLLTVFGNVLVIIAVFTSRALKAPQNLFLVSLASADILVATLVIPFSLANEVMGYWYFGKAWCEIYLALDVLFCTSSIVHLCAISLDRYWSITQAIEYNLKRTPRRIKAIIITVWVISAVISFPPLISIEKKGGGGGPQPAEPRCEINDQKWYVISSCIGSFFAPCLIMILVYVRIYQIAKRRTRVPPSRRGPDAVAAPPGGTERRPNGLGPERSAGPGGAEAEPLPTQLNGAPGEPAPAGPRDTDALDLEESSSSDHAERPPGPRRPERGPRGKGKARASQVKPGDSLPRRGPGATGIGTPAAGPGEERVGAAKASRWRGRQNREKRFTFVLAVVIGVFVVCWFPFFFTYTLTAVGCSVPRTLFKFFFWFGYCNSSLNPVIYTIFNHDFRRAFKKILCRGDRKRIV
# [1] = target: T3, Transporter, Dopamine (DAT) (Homo sapiens, UniProt Q01959); experiment: Radioligand binding, [125I] RTI-55, Eurofins; conditions: DAT
# T3 construct: host or cells: CHO-S cells
# T3 sequence (Q01959 whole entry): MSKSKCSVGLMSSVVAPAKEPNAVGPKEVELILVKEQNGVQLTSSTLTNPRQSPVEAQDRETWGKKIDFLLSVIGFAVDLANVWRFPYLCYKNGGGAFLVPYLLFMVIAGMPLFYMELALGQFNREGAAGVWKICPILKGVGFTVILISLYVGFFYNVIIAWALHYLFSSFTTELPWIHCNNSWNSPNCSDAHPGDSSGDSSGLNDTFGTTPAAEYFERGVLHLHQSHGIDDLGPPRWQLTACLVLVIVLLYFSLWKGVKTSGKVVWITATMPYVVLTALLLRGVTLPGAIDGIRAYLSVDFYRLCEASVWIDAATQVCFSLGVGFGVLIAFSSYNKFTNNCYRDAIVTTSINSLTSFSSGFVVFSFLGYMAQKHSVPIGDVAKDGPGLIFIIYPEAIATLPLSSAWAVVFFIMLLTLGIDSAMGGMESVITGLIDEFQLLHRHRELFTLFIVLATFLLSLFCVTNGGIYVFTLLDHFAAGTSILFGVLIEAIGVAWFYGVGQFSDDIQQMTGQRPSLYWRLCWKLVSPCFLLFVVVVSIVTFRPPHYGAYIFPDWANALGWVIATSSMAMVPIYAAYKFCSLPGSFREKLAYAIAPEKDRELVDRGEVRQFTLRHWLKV
# T1 sequence (P14416 whole entry): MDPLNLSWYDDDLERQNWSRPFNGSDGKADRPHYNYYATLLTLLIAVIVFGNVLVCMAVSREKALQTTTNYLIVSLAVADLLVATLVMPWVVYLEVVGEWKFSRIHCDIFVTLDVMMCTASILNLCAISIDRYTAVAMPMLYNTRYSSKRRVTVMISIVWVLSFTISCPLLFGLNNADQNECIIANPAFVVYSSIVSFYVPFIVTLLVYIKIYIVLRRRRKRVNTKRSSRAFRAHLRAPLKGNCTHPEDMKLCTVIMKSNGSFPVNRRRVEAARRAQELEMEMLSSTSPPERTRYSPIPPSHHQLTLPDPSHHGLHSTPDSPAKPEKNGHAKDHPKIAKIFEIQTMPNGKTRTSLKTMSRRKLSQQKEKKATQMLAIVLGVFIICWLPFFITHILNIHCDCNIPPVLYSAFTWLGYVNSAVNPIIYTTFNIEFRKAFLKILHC
compound,measurement,setting,value
"O=C(CCCN1CCC2(CC1)C(=O)NCN2c1ccccc1)c1ccc(F)cc1 [Spiperone, reference compound]",nH (Hill coefficient),Dopamine D2L,0.71
"O=C(c1ccc(F)cc1)C1CCN(CCn2c(=O)[nH]c3ccccc3c2=O)CC1 [Ketanserin, reference compound]",nH (Hill coefficient),Serotonin 5-HT2A,0.99
CC(=O)N1CCN(c2ccc(OCC3COC(Cn4ccnc4)(c4ccc(Cl)cc4Cl)O3)cc2)CC1 (stereo not shown) [Ketoconazole],"inhibition at 15 min, 0.1 µM",CYP3A4,68%
same,"inhibition at 15 min, 0.1 µM",CYP2C9,3.2%
same,"inhibition at 15 min, 0.1 µM",CYP2C19,0%
"COC(=O)[C@@H]1[C@H]2C[C@H]3c4[nH]c5ccccc5c4CCN3C[C@@H]2CC[C@@H]1O [Yohimbine, reference compound]",nH (Hill coefficient),Adrenergic α2A,0.88
"Fc1ccc(C(OCCN2CCN(CCCc3ccccc3)CC2)c2ccc(F)cc2)cc1 [Vanoxerine, reference compound]",nH (Hill coefficient),[1],1.01
